Experiments:
[1] = test system: U251MG glioblastoma cells; experiment: CyQuant cell viability/proliferation assay, U251MG; assay type: cell-based, human; design: key to Activity against U251: +, active; −, no activity; +/−, poorly active; details: for Inhibitory effect on viability of U251MG (tumor) cells, in words: 5 micromolar; for Inhibitory effect on viability of U251MG (tumor) cells, in words / U251MG % inhibition / inhibition at 5 µM: Table 3 numbering (isolates 1-16); for U251MG % inhibition / inhibition at 5 µM: at 5 μM, 72 h; for inhibition at 5 µM: Homo sapiens, U-251; for Activity against U251: Table 1 grade, Table 1/FIG. 2 compound numbering; for Inhibitory potency compared with 22 (CyQuant): 72-h treatment, FIG. 10, synthetic derivatives of 22
Procedure: (§1) The cell viability assay was performed as previously reported (Zhang X, et al. (2010)). Briefly, a 10 millimolar concentration stock solution in dimethylsulfoxide (DMSO) of the tested molecule was first prepared. Next, the stock solution was diluted down to various working solutions in water. Thus, a formulation of the tested compound in a DMSO/water mixture was used to test for cell viability. (A novel small-molecule disrupts STAT3 SH2 domainphosphotyrosine interactions and STAT3-dependent tumor processes, Biochem Pharmacol 79:1398-1409; Zhao W, Jaganathan S, & Turkson J (2010), A cell-permeable STAT3 SH2 domain mimetic inhibits STAT3 activation and induces antitumor cell effects in vitro. J Biol Chem. 285:35855-35865). Cells (U251MG, MDA-MB-231 or NIH3T3) were obtained from ATCC (Manassas, Va.) and were cultured in 96-well plates at 2,000 cells per well for 24 h and were treated with compounds (5 micromolar concentration) for 72 h. Cell viabilty was determined using CyQuant assay, according to the manufacturer's (Invitrogen, CA, USA) instructions. Relative viability of the treated cells was normalized to the DMSO-treated control cells.

[2] = test system: MDA-MB-231 breast cancer cells; experiment: CyQuant cell viability/proliferation assay, MDA-MB-231; assay type: cell-based, human; details: for MDA-MB-231 % inhibition / inhibition at 5 µM: at 5 μM, 72 h, Table 3 numbering (isolates 1-16); for inhibition at 5 µM: Homo sapiens, MDA-MB-231; for Inhibition of breast cancer MDA-MB-231, in words: 72-h treatment, FIG. 10
Procedure: as §1

[3] = test system: pY705STAT3 in U251MG or MDA-MB-231 cells; experiment: Immunoblotting of pY705STAT3 in treated tumor cells; details: 5 micromolar, U251MG or MDA-MB-231; for Effect on pY705STAT3 / STAT3 activity (immunoblot), in words: 0-24 h, Table 1/FIG. 2 numbering
Procedure: Positions of STATs:DNA complexes or proteins in gel are labeled; control lanes (0) represent nuclear extracts or whole-cell lysates prepared from 0.05% DMSO-treated cells. Data are representative of at least three to four independent determinations.
Lysates of equal total protein prepared in the lysis buffer (50 mM Hepes, pH 7.5, 150 mM NaCl, 2 mM EDTA, 1% Triton X-100, 0.1% SDS), were subjected to IP or Western blotting analysis. Antibodies against STAT3, pY705STAT3, Src, pY416Src, Erk1/2, and pT202/Y204Erk1/2 and GAPDH (Cell Signaling Technology, Danvers, Mass.), and anti-β-actin, and HSP105 (Santa Cruz Biotechnology, Dallas, Tex.) are from the designated sources.
Whole-cell lysates were prepared in boiling SDS sample loading buffer to extract total proteins, as reported previously. […] Nitrocellulose membranes were probed with primary antibodies, and the detection of horseradish peroxidase-conjugated secondary antibodies by enhanced chemiluminescence (Amersham) was performed. Antibodies used were monoclonal anti-pYSTAT3 and anti-STAT3 antibodies (Cell Signaling Technology, Danvers, Mass.).

[4] = test system: normal NIH3T3 mouse fibroblasts; experiment: CyQuant cell viability/proliferation assay, NIH3T3; assay type: cell-based; details: Table 3 numbering (isolates 1-16); for NIH-3T3 % inhibition / inhibition at 5 µM: at 5 μM, 72 h; for inhibition at 5 µM: Mus musculus, NIH3T3, read-out: NIH-3T3 % inhibition
Procedure: as §1

8α-(2′Z-tigloyloxy)hirsutinolide-13-O-acetate [Compound 2]
Inhibitory effect on viability of U251MG (tumor) cells, in words [1]: weak inhibitory effect
U251MG % inhibition [1]: 48.6%
MDA-MB-231 % inhibition [2]: ne (ne, no effect inhibition)
Inhibition of pY705STAT3 (immunoblot), in words ([3]; Table 3 numbering (isolates 1-16)): inhibited STAT3 phosphorylation
NIH-3T3 % inhibition [4]: 8.0%

8α-(4-hydroxytigloyloxy)-hirsutinolide [Compound 3]
U251MG % inhibition [1]: ne (ne, no effect inhibition)
MDA-MB-231 % inhibition [2]: ne (ne, no effect inhibition)
NIH-3T3 % inhibition [4]: ne (ne, no effect inhibition)

CC=C(C)C(=O)OC1CC(C)C2(O)CCC(C)(C=C3OC(=O)C(CO)=C31)O2 (stereo not drawn) [Compound 1, 8α-(2′Z-tigloyloxy)hirsutinolide]
U251MG % inhibition [1]: ne (ne, no effect inhibition)
MDA-MB-231 % inhibition [2]: ne (ne, no effect inhibition)
NIH-3T3 % inhibition [4]: ne (ne, no effect inhibition)

CC=C(C)C(=O)OCC1=C2C(=CC3(C)CCC(O)(O3)C(C)CC2O)OC1=O (stereo not drawn) [Compound 4, 8α-hydroxy-13-O-tigloyl-hirsutinolide]
Inhibitory effect on viability of U251MG (tumor) cells, in words [1]: high inhibitory effect
U251MG % inhibition [1]: 80.9%
MDA-MB-231 % inhibition [2]: 26.2%
Inhibitory effect on NIH3T3 fibroblasts, in words ([4]; 5 micromolar): lower inhibitory effect
NIH-3T3 % inhibition [4]: 32.1%

C=C(C)C(=O)OC1CC(C)C2(O)CCC(C)(C=C3OC(=O)C(CO)=C31)O2 (stereo not drawn) [Compound 5, 8α-(2-methylacryloyloxy)-hirsutinolide]
U251MG % inhibition [1]: ne (ne, no effect inhibition)
MDA-MB-231 % inhibition [2]: ne (ne, no effect inhibition)
NIH-3T3 % inhibition [4]: ne (ne, no effect inhibition)

CC1(C)C[C@H](O)C[C@@]2(C)OC(=O)C=C12 [Compound 12, loliolide]
inhibition at 5 µM [1]: < 6%
inhibition at 5 µM [2]: < 6%
inhibition at 5 µM [4]: < 6%

O=c1cc(-c2ccc(O)cc2)oc2cc(O)cc(O)c12 [Compound 15, apigenine]
inhibition at 5 µM [1]: < 6%
inhibition at 5 µM [2]: < 6%
inhibition at 5 µM [4]: < 6%

CC=C(C)C(=O)OC1CC(C)C2(OC)CCC(C)(C=C3OC(=O)C(CO)=C31)O2 (stereo not shown) [Compound 17]
Activity against U251 [1]: −

CC(=CCO)C(=O)OC1CC(C)C2(O)CCC(C)(C=C3OC(=O)C(CO)=C31)O2 (stereo not shown) [Compound 21]
Activity against U251 [1]: −

CCC(C)C(=O)OCC1=C2/C(=C\C3(C)CCC(O)(O3)[C@H](C)C[C@@H]2O)OC1=O (stereo partly drawn) [zmm-1-18, ((4S,6R,E)-4,7-dihydroxy-6,10-dimethyl-2-oxo-2,4,5,6,7,8,9,10-octahydro-7,10-epoxycyclodeca[b]furan-3-yl)methyl 2-methylbutanoate]
Effect on pY705STAT3 / STAT3 activity (immunoblot), in words [3]: showed little effects on pY705STAT3

C[C@@H]1C[C@H](O)C2=C(COC(=O)C=Cc3ccccc3)C(=O)O/C2=C/C2(C)CCC1(O)O2 (stereo partly drawn) [zmm-1-19, ((4S,6R,E)-4,7-dihydroxy-6,10-dimethyl-2-oxo-2,4,5,6,7,8,9,10-octahydro-7,10-epoxycyclodeca[b]furan-3-yl)methyl cinnamate]
Inhibitory potency compared with 22 (CyQuant) [1]: retained the inhibitory potency as 22
Effect on pY705STAT3 / STAT3 activity (immunoblot), in words [3]: inhibited pY705STAT3

CC(C)=CCCC(C)=CC(=O)OCC1=C2/C(=C\C3(C)CCC(O)(O3)[C@H](C)C[C@@H]2O)OC1=O (stereo partly drawn) [zmm-1-20, ((4S,6R,E)-4,7-dihydroxy-6,10-dimethyl-2-oxo-2,4,5,6,7,8,9,10-octahydro-7,10-epoxycyclodeca[b]furan-3-yl)methyl 3,7-dimethylocta-2,6-dienoate]
Inhibitory potency compared with 22 (CyQuant) [1]: retained the inhibitory potency as 22
Effect on pY705STAT3 / STAT3 activity (immunoblot), in words [3]: inhibited pY705STAT3

CC(C)=CC(=O)OCC1=C2/C(=C\C3(C)CCC(O)(O3)[C@H](C)C[C@@H]2O)OC1=O (stereo partly drawn) [zmm-1-21, ((4S,6R,E)-4,7-dihydroxy-6,10-dimethyl-2-oxo-2,4,5,6,7,8,9,10-octahydro-7,10-epoxycyclodeca[b]furan-3-yl)methyl 3-methyl but-2-enoate]
Effect on pY705STAT3 / STAT3 activity (immunoblot), in words [3]: showed little effects on pY705STAT3

CC(C)=CCCC(C)CC(=O)OCC1=C2/C(=C\C3(C)CCC(O)(O3)[C@H](C)C[C@@H]2O)OC1=O (stereo partly drawn) [zmm-1-22, ((4S,6R,E)-4,7-dihydroxy-6,10-dimethyl-2-oxo-2,4,5,6,7,8,9,10-octahydro-7,10-epoxycyclodeca[b]furan-3-yl)methyl 3,7-dimethyloct-6-enoate]
Inhibitory potency compared with 22 (CyQuant) [1]: retained the inhibitory potency as 22
Effect on pY705STAT3 / STAT3 activity (immunoblot), in words [3]: inhibited pY705STAT3

C/C=C(\C)C(=O)OCC1=C2/C(=C\C3(C)CCC(O)(O3)[C@H](C)C[C@@H]2OC(=O)/C(C)=C/C)OC1=O (stereo partly drawn) [zmm-1-36, (4S,6R,E)-7-hydroxy-6,10-dimethyl-3-((((E)-2-methylbut-2-enoyl)oxy)methyl)-2-oxo-2,4,5,6,7,8,9,10-octahydro-7,10-epoxycyclodeca[b]furan-4-yl(E)-2-methylbut-2-enoate]
Inhibitory potency compared with 22 (CyQuant) [1]: retained the inhibitory potency as 22
Cell-type selectivity of growth inhibition, in words ([1]; U251MG versus other cells incl. NIH3T3, Table 1/FIG. 2 numbering): lost cell-type specificity
Effect on pY705STAT3 / STAT3 activity (immunoblot), in words [3]: inhibited pY705STAT3

C/C=C(\C)C(=O)OCC1=C2/C(=C\C3(C)CCC(OC)(O3)[C@H](C)C[C@@H]2OC(=O)/C(C)=C/C)OC1=O (stereo partly drawn) [zmm-1-37, (4S,6R,E)-7-methoxy-6,10-dimethyl-3-((((E)-2-methylbut-2-enoyl)oxy)methyl)-2-oxo-2,4,5,6,7,8,9,10-octahydro-7,10-epoxycyclodeca[b]furan-4-yl(E)-2-methylbut-2-enoate]
Inhibitory potency compared with 22 (CyQuant) [1]: retained the inhibitory potency as 22
Inhibition of breast cancer MDA-MB-231, in words [2]: also inhibited breast cancer, MDA-MB-231
Effect on pY705STAT3 / STAT3 activity (immunoblot), in words [3]: inhibited pY705STAT3

C/C=C(\C)C(=O)O[C@H]1C[C@@H](C)C2(OC)CCC(C)(/C=C3/OC(=O)C(COC(=O)C=Cc4ccccc4)=C31)O2 (stereo partly drawn) [zmm-1-72, (4S,6R,E)-3-((cinnamoyloxy)methyl)-7-methoxy-6,10-dimethyl-2-oxo-2,4,5,6,7,8,9,10-octahydro-7,10-epoxycyclodeca[b]furan-4-yl(E)-2-methylbut-2-enoate]
Inhibitory potency compared with 22 (CyQuant) [1]: retained the inhibitory potency as 22

C[C@@H]1C[C@H](O)C2=C(COC(=O)/C=C/c3ccc(F)cc3)C(=O)O/C2=C/C2(C)CCC1(O)O2 (stereo partly shown) [zmm-1-78]
Inhibition of breast cancer MDA-MB-231, in words [2]: also inhibited breast cancer, MDA-MB-231

C[C@@H]1C[C@H](O)C2=C(COC(=O)/C=C/c3ccc(C(F)(F)F)cc3)C(=O)O/C2=C/C2(C)CCC1(O)O2 (stereo partly shown) [zmm-1-79]
Inhibitory potency compared with 22 (CyQuant) [1]: retained the inhibitory potency as 22

CCCC(CCC)C(=O)OCC1=C2/C(=C\C3(C)CCC(O)(O3)[C@H](C)C[C@@H]2O)OC1=O (stereo partly shown) [zmm-1-80]
Inhibitory potency compared with 22 (CyQuant) [1]: retained the inhibitory potency as 22

C[C@@H]1C[C@H](O)C2=C(COC(=O)CCc3ccccc3)C(=O)O/C2=C/C2(C)CCC1(O)O2 (stereo partly drawn) [zmm-1-82, ((4S,6R,E)-4,7-dihydroxy-6,10-dimethyl-2-oxo-2,4,5,6,7,8,9,10-octahydro-7,10-epoxycyclodeca[b]furan-3-yl)methyl 3-phenylpropanoate]
Inhibitory potency compared with 22 (CyQuant) [1]: retained the inhibitory potency as 22

(9Z,12S,13S)-dihydroxy-9-octadecanoic acid [Compound 16]
U251MG % inhibition [1]: ne (ne, no effect inhibition)
MDA-MB-231 % inhibition [2]: ne (ne, no effect inhibition)
NIH-3T3 % inhibition [4]: ne (ne, no effect inhibition)
